Peptide text beside a SMILES is read from it. * marks the point of attachment. MaleimidoPEG4propanoyl = O=C1C=CC(=O)N1CCOCCOCCOCCOCCC(=O)*; X10 = O=C1C=CC(=O)N1CCOCCOCCOCCOCCCC(=O)*; X28 = O=C1C=CC(=O)N1CCOCCOCCOCCCCCCC(=O)*; X6 = O=C1C=CC(=O)N1CCOCCOCCOCCCCCCCC(=O)*; X34 = O=C1C=CC(=O)N1CCOCCOCCOCCCCCC(=O)*; X17 = O=C1C=CC(=O)N1CCOCCOCCCCCCCC(=O)*; X33 = O=C1C=CC(=O)N1CCOCCOCCOCCCCC(=O)*; X35 = O=C1C=CC(=O)N1CCOCCOCCOCCOCC(=O)*; X16 = O=C1C=CC(=O)N1CCOCCOCCCCCCC(=O)*; X70 = O=C1C=CC(=O)N1CCOCCOCCOCCCC(=O)*; X15 = O=C1C=CC(=O)N1CCOCCOCCOCCC(=O)*; X2 = O=C1C=CC(=O)N1CCOCCOCCCCCC(=O)*; X31 = O=C1C=CC(=O)N1CCOCCOCCOCC(=O)*; X76 = O=C1C=CC(=O)N1CCOCCCCCCCC(=O)*; X21 = O=C1C=CC(=O)N1CCOCCCCCCC(=O)*; X3 = O=C1C=CC(=O)N1CCOCCOCCCCC(=O)*; X32 = O=C1C=CC(=O)N1CCOCCOCCC(=O)*; X8 = O=C1C=CC(=O)N1CCOCCOCCCC(=O)*; X30 = O=C1C=CC(=O)N1CCOCCOCC(=O)*
Assay: Half-lives and pharmacokinetic parameters of polypeptides vs HM-1
Conditions: in vivo; for half-life: T1/2β (half-life)

Compound	AUC(0-inf) [ng·h/mL]	MRT inf [h]	clearance [mL/min/kg]	half-life [h]
C[C@H](NC(=O)CNC(=O)[C@H](CCCNC(=N)N)NC(=O)CCCCCCOCCN1C(=O)C=CC1=O)C(=O)N[C@@H](CC(=O)O)C(=O)N[C@@H](CCCNC(=N)N)C(=O)N[C@@H](C)C(=O)NCC(=O)NCC(=O)NCC(=O)NCC(=O)N[C@@H](CCCNC(=N)N)C(=O)NCC(=O)N[C@@H](CC(=O)O)C(=O)O [X54] (X21-RGADRAGGGGRGD-OH)	27200 ± 7640	48.8 ± 11.2	0.612	33.83 ± 0.25
C[C@H](NC(=O)CNC(=O)[C@H](CCCNC(=N)N)NC(=O)CCCCCCCOCCN1C(=O)C=CC1=O)C(=O)N[C@@H](CC(=O)O)C(=O)N[C@@H](CCCNC(=N)N)C(=O)N[C@@H](C)C(=O)NCC(=O)NCC(=O)NCC(=O)NCC(=O)N[C@@H](CCCNC(=N)N)C(=O)NCC(=O)N[C@@H](CC(=O)O)C(=O)O [X55] (X76-RGADRAGGGGRGD-OH)	24300 ± 8150	43.5 ± 12.4	0.687	30.1 ± 0.36
C[C@H](NC(=O)CNC(=O)[C@H](CCCNC(=N)N)NC(=O)COCCOCCN1C(=O)C=CC1=O)C(=O)N[C@@H](CC(=O)O)C(=O)N[C@@H](CCCNC(=N)N)C(=O)N[C@@H](C)C(=O)NCC(=O)NCC(=O)NCC(=O)NCC(=O)N[C@@H](CCCNC(=N)N)C(=O)NCC(=O)N[C@@H](CC(=O)O)C(=O)O [X56] (X30-RGADRAGGGGRGD-OH)	32900 ± 8070	59 ± 10.1	0.507	40.86 ± 0.29
C[C@H](NC(=O)CNC(=O)[C@H](CCCNC(=N)N)NC(=O)CCOCCOCCN1C(=O)C=CC1=O)C(=O)N[C@@H](CC(=O)O)C(=O)N[C@@H](CCCNC(=N)N)C(=O)N[C@@H](C)C(=O)NCC(=O)NCC(=O)NCC(=O)NCC(=O)N[C@@H](CCCNC(=N)N)C(=O)NCC(=O)N[C@@H](CC(=O)O)C(=O)O [X57] (X32-RGADRAGGGGRGD-OH)	33800 ± 8180	60.5 ± 10.5	0.493	41.93 ± 0.24
C[C@H](NC(=O)CNC(=O)[C@H](CCCNC(=N)N)NC(=O)CCCOCCOCCN1C(=O)C=CC1=O)C(=O)N[C@@H](CC(=O)O)C(=O)N[C@@H](CCCNC(=N)N)C(=O)N[C@@H](C)C(=O)NCC(=O)NCC(=O)NCC(=O)NCC(=O)N[C@@H](CCCNC(=N)N)C(=O)NCC(=O)N[C@@H](CC(=O)O)C(=O)O [X58] (X8-RGADRAGGGGRGD-OH)	26200 ± 7810	47.9 ± 13.5	0.635	32.57 ± 0.28
C[C@H](NC(=O)CNC(=O)[C@H](CCCNC(=N)N)NC(=O)CCCCOCCOCCN1C(=O)C=CC1=O)C(=O)N[C@@H](CC(=O)O)C(=O)N[C@@H](CCCNC(=N)N)C(=O)N[C@@H](C)C(=O)NCC(=O)NCC(=O)NCC(=O)NCC(=O)N[C@@H](CCCNC(=N)N)C(=O)NCC(=O)N[C@@H](CC(=O)O)C(=O)O [X59] (X3-RGADRAGGGGRGD-OH)	30300 ± 7110	54.2 ± 9.93	0.553	37.55 ± 0.27
C[C@H](NC(=O)CNC(=O)[C@H](CCCNC(=N)N)NC(=O)CCCCCOCCOCCN1C(=O)C=CC1=O)C(=O)N[C@@H](CC(=O)O)C(=O)N[C@@H](CCCNC(=N)N)C(=O)N[C@@H](C)C(=O)NCC(=O)NCC(=O)NCC(=O)NCC(=O)N[C@@H](CCCNC(=N)N)C(=O)NCC(=O)N[C@@H](CC(=O)O)C(=O)O [X60] (X2-RGADRAGGGGRGD-OH)	30200 ± 7290	54.1 ± 11.7	0.552	37.51 ± 0.25
C[C@H](NC(=O)CNC(=O)[C@H](CCCNC(=N)N)NC(=O)CCCCCCOCCOCCN1C(=O)C=CC1=O)C(=O)N[C@@H](CC(=O)O)C(=O)N[C@@H](CCCNC(=N)N)C(=O)N[C@@H](C)C(=O)NCC(=O)NCC(=O)NCC(=O)NCC(=O)N[C@@H](CCCNC(=N)N)C(=O)NCC(=O)N[C@@H](CC(=O)O)C(=O)O [X61] (X16-RGADRAGGGGRGD-OH)	25600 ± 7550	45.7 ± 13.6	0.652	31.69 ± 0.28
C[C@H](NC(=O)CNC(=O)[C@H](CCCNC(=N)N)NC(=O)CCCCCCCOCCOCCN1C(=O)C=CC1=O)C(=O)N[C@@H](CC(=O)O)C(=O)N[C@@H](CCCNC(=N)N)C(=O)N[C@@H](C)C(=O)NCC(=O)NCC(=O)NCC(=O)NCC(=O)N[C@@H](CCCNC(=N)N)C(=O)NCC(=O)N[C@@H](CC(=O)O)C(=O)O [X62] (X17-RGADRAGGGGRGD-OH)	26700 ± 8160	47.8 ± 12.3	0.625	33.09 ± 0.28
C[C@H](NC(=O)CNC(=O)[C@H](CCCNC(=N)N)NC(=O)COCCOCCOCCN1C(=O)C=CC1=O)C(=O)N[C@@H](CC(=O)O)C(=O)N[C@@H](CCCNC(=N)N)C(=O)N[C@@H](C)C(=O)NCC(=O)NCC(=O)NCC(=O)NCC(=O)N[C@@H](CCCNC(=N)N)C(=O)NCC(=O)N[C@@H](CC(=O)O)C(=O)O [X63] (X31-RGADRAGGGGRGD-OH)	32300 ± 7650	57.7 ± 13.3	0.517	39.97 ± 0.31
C[C@H](NC(=O)CNC(=O)[C@H](CCCNC(=N)N)NC(=O)CCOCCOCCOCCN1C(=O)C=CC1=O)C(=O)N[C@@H](CC(=O)O)C(=O)N[C@@H](CCCNC(=N)N)C(=O)N[C@@H](C)C(=O)NCC(=O)NCC(=O)NCC(=O)NCC(=O)N[C@@H](CCCNC(=N)N)C(=O)NCC(=O)N[C@@H](CC(=O)O)C(=O)O [X64] (X15-RGADRAGGGGRGD-OH)	32300 ± 7250	57.7 ± 13	0.517	39.97 ± 0.28
C[C@H](NC(=O)CNC(=O)[C@H](CCCNC(=N)N)NC(=O)CCCOCCOCCOCCN1C(=O)C=CC1=O)C(=O)N[C@@H](CC(=O)O)C(=O)N[C@@H](CCCNC(=N)N)C(=O)N[C@@H](C)C(=O)NCC(=O)NCC(=O)NCC(=O)NCC(=O)N[C@@H](CCCNC(=N)N)C(=O)NCC(=O)N[C@@H](CC(=O)O)C(=O)O [X65] (X70-RGADRAGGGGRGD-OH)	31800 ± 7280	57.1 ± 12.2	0.523	39.53 ± 0.31
C[C@H](NC(=O)CNC(=O)[C@H](CCCNC(=N)N)NC(=O)CCCCOCCOCCOCCN1C(=O)C=CC1=O)C(=O)N[C@@H](CC(=O)O)C(=O)N[C@@H](CCCNC(=N)N)C(=O)N[C@@H](C)C(=O)NCC(=O)NCC(=O)NCC(=O)NCC(=O)N[C@@H](CCCNC(=N)N)C(=O)NCC(=O)N[C@@H](CC(=O)O)C(=O)O [X66] (X33-RGADRAGGGGRGD-OH)	27700 ± 7510	49.6 ± 9.77	0.602	34.38 ± 0.25
C[C@H](NC(=O)CNC(=O)[C@H](CCCNC(=N)N)NC(=O)CCCCCOCCOCCOCCN1C(=O)C=CC1=O)C(=O)N[C@@H](CC(=O)O)C(=O)N[C@@H](CCCNC(=N)N)C(=O)N[C@@H](C)C(=O)NCC(=O)NCC(=O)NCC(=O)NCC(=O)N[C@@H](CCCNC(=N)N)C(=O)NCC(=O)N[C@@H](CC(=O)O)C(=O)O [X67] (X34-RGADRAGGGGRGD-OH)	31600 ± 8030	56.4 ± 11.6	0.528	39.09 ± 0.28
C[C@H](NC(=O)CNC(=O)[C@H](CCCNC(=N)N)NC(=O)CCCCCCOCCOCCOCCN1C(=O)C=CC1=O)C(=O)N[C@@H](CC(=O)O)C(=O)N[C@@H](CCCNC(=N)N)C(=O)N[C@@H](C)C(=O)NCC(=O)NCC(=O)NCC(=O)NCC(=O)N[C@@H](CCCNC(=N)N)C(=O)NCC(=O)N[C@@H](CC(=O)O)C(=O)O [X68] (X28-RGADRAGGGGRGD-OH)	31800 ± 7920	57 ± 10.3	0.523	39.52 ± 0.34
C[C@H](NC(=O)CNC(=O)[C@H](CCCNC(=N)N)NC(=O)CCCCCCCOCCOCCOCCN1C(=O)C=CC1=O)C(=O)N[C@@H](CC(=O)O)C(=O)N[C@@H](CCCNC(=N)N)C(=O)N[C@@H](C)C(=O)NCC(=O)NCC(=O)NCC(=O)NCC(=O)N[C@@H](CCCNC(=N)N)C(=O)NCC(=O)N[C@@H](CC(=O)O)C(=O)O [X69] (X6-RGADRAGGGGRGD-OH)	26900 ± 8290	48.2 ± 14.3	0.62	33.38 ± 0.32
C[C@H](NC(=O)CNC(=O)[C@H](CCCNC(=N)N)NC(=O)COCCOCCOCCOCCN1C(=O)C=CC1=O)C(=O)N[C@@H](CC(=O)O)C(=O)N[C@@H](CCCNC(=N)N)C(=O)N[C@@H](C)C(=O)NCC(=O)NCC(=O)NCC(=O)NCC(=O)N[C@@H](CCCNC(=N)N)C(=O)NCC(=O)N[C@@H](CC(=O)O)C(=O)O [X70] (X35-RGADRAGGGGRGD-OH)	28000 ± 8160	50.2 ± 10.5	0.595	34.76 ± 0.26
C[C@H](NC(=O)CNC(=O)[C@H](CCCNC(=N)N)NC(=O)CCOCCOCCOCCOCCN1C(=O)C=CC1=O)C(=O)N[C@@H](CC(=O)O)C(=O)N[C@@H](CCCNC(=N)N)C(=O)N[C@@H](C)C(=O)NCC(=O)NCC(=O)NCC(=O)NCC(=O)N[C@@H](CCCNC(=N)N)C(=O)NCC(=O)N[C@@H](CC(=O)O)C(=O)O [X71] (MaleimidoPEG4propanoyl-RGADRAGGGGRGD-OH)	28300 ± 8140	50.7 ± 13.4	0.588	35.13 ± 0.34
C[C@H](NC(=O)CNC(=O)[C@H](CCCNC(=N)N)NC(=O)CCCOCCOCCOCCOCCN1C(=O)C=CC1=O)C(=O)N[C@@H](CC(=O)O)C(=O)N[C@@H](CCCNC(=N)N)C(=O)N[C@@H](C)C(=O)NCC(=O)NCC(=O)NCC(=O)NCC(=O)N[C@@H](CCCNC(=N)N)C(=O)NCC(=O)N[C@@H](CC(=O)O)C(=O)O [X72] (X10-RGADRAGGGGRGD-OH)	33800 ± 7140	60.5 ± 12.3	0.493	41.92 ± 0.29
